According to publication PMC8490515, “Neuromedin B receptor stimulation of Cav3.2 T-type Ca^2+ channels in primary sensory neurons mediates peripheral pain hypersensitivity” (Theranostics, 2021):

Columns and labels:
Cav3.3 (α1I) = test: Cav3.3 channel currents in HEK293 cells coexpressing NmbR; assay type: cell-based, human; settings: 100 nM Nmb; -110 mV to -30 mV; n = 7
PKA = PKA activity assay in TG cells (Pep Tag); assay type: cell-based, mouse; settings: 100 nM Nmb, 30 min; triplicate
Method: PKA enzymatic activity in cell lysates was measured using the Pep Tag assay for nonradioactive detection of PKA (Promega, Madison, WI, USA) as described in our previous studies. Briefly, TG cells were cultured in 12-well plates and preincubated with BIM23042 (0.5 μM) or compound C (10 μM) followed by exposure to 100 nM Nmb for 30 min. TG cells were washed with ice-cold phosphate-buffered saline and placed on ice. PKA was extracted from the cell lysates with cold PKA extraction buffer (25 mM Tris-HCl, pH 7.4, 0.5 mM EDTA, 0.5 mM EGTA, 10 mM β-mercaptoethanol, 1 μg/mL leupeptin and 1 μg/mL aprotinin). The assay was conducted according to the manufacturer's instructions.

Cav3.2 = test: Western blot of Cav3.2 protein in TG cells / TGs; assay type: cell-based, mouse; settings: 100 nM Nmb
[1] = system: mechanical hypersensitivity in mice; test: von Frey test after intra-TG injection of Nmb; assay type: in vivo, mouse
Method: (§1) Mice were housed on a 12 h light/dark cycle, maintained in a humidity- and temperature-controlled room with water available ad libitum and were acclimated to the experimenter for 2 d before the first behavioural observations. Experimenters were blinded to the treatment or genotypes of the mice. As described previously, [31], an Orofacial Stimulation Test (Ugo Basile, Italy) was used for the measurement of hypersensitivity to the mechanical stimulation of the trigeminal area. Briefly, the mice initially underwent one week of adaptation trainings after a 12 h fasting food period. Each mouse was then placed in a cage in which there was an Orofacial Stimulation Test system. After the mouse was given 10 min to familiarize itself with its environment, the drinking window was opened and the testing mouse was subsequently timed for 10 min to allow drinking the milk. The contact number and total duration of time the mouse spent acquiring the reward were analyzed with the ORO software.
For experiments that several time points are needed to be checked in 24 h, von Frey test was used, as orofacial stimulation test can be checked only once a day, [32]. For the von Frey test, the mice were placed in metal mesh boxes and allowed 30 min for habituation before examination. Mechanical hypersensitivity was assessed as described in previous studies, [33]. In brief, the threshold was assessed with a set of von Frey hairs (0.02-2.56 g, Stoelting) applied to the whisker pad in an ascending series of trials, with three separate von Frey stimulations applied per series. The threshold was determined when mice moved their heads away briskly and strongly from at least one of the three stimuli. Dixon's up-down method was used to determine the 50% probability of escape threshold. For thermal test, a heat stimulus was applied to the maxillary whisker pad skin by radiant heat (IITC Life Science). Heat sensitivity was expressed as head-withdrawal latency (HWL). The radiant heat intensity was adjusted so that basal HWL is between 10-15 s, with a cut-off of 18 s to prevent tissue damage. Chronic inflammatory pain was induced by subcutaneous injection of 20 μL of complete Freund's adjuvant (CFA) into the left side of the buccal pad. The drugs (Nmb, BIM23042, Z941, or TTA-P2) were applied through a percutaneous approach by injecting the TG with a 30 G needle inserted through the infraorbital foramen, infraorbital canal and foramen rotundum. The tip of the needle terminated at the medial part of the TG, and a volume of 5 μL reagent was slowly delivered, [34]. Mice received intra-TG injection of 5'-cholesteryl-modified and 6-FAM-modified Cav3.2 siRNA (Cav3.2-siRNA, 5 μg) or a scrambled negative control siRNA (NC-siRNA) (RiboBio, Guangzhou) 2 d after the CFA injection. siRNA was mixed with polyethyleneimine (PEI, Fermentas Inc.) for 10 min before being delivered. PEI was used as a delivery vehicle to prevent degradation and enhance cell membrane penetration of siRNAs, [36].

[2] = system: mechanical hypersensitivity in mice; test: Orofacial stimulation (operant) test, total contact time; assay type: in vivo, mouse; settings: 1 h after intra-TG 1 nmol Nmb
Method: as §1, with “After the mouse was given 10 min to familiarize itself with its environment, the drinking window was opened and the testing mouse was subsequently timed for 10 min to allow drinking the milk.” left out
(§2) For experiments that several time points are needed to be checked in 24 h, von Frey test was used, as orofacial stimulation test can be checked only once a day, [32]. […] Mechanical hypersensitivity was assessed as described in previous studies, [33]. In brief, the threshold was assessed with a set of von Frey hairs (0.02-2.56 g, Stoelting) applied to the whisker pad in an ascending series of trials, with three separate von Frey stimulations applied per series. The threshold was determined when mice moved their heads away briskly and strongly from at least one of the three stimuli. […]

[3] = system: Nmb-induced mechanical hypersensitivity in mice; test: Nmb-induced mechanical hypersensitivity, effect of pretreatment (Figure 7C); assay type: in vivo, mouse; settings: intra-TG KT-5720 2 nmol prior to 1 nmol Nmb; 1 h; n = 8 - 10
Method: as §1, with “After the mouse was given 10 min to familiarize itself with its environment, the drinking window was opened and the testing mouse was subsequently timed for 10 min to allow drinking the milk.” left out
as §2

Row | Compound | increase of Cav3.3 channel currents (Cav3.3 (α1I)) [%] | PKA activity (PKA) | Cav3.2 protein expression in TG cells (Cav3.2) | acute mechanical hypersensitivity ([1]; intra-TG 0.1 nmol) | acute mechanical hypersensitivity ([1]; intra-TG 1 nmol or 5 nmol, n = 6 - 8 mice per group) | mechanical hypersensitivity, 5 nmol vs 1 nmol ([1]; intra-TG 5 nmol) | onset of mechanical hypersensitivity ([1]; intra-TG 5 nmol) [h] | recovery from mechanical hypersensitivity ([1]; intra-TG 5 nmol) [h] | time at which mechanical hypersensitivity was maintained ([1]; intra-TG 5 nmol) [h] | total contact time [2] | effect on Nmb-induced mechanical hypersensitivity [3]
1 | Neuromedin B [Nmb] | 2.9 ± 1.6 | increase in PKA activity | did not affect the Cav3.2 protein expression | no such effects | significantly induced profound hypersensitivity to acute mechanical pain | stronger effect than that of 1 nmol | 1 | 6 | 3 | significantly reduced | –
2 | CCCCCCOC(=O)[C@]1(O)C[C@@H]2O[C@@]1(C)n1c3ccccc3c3c4c(c5c6ccccc6n2c5c31)C(=O)NC4 [KT-5720] | – | – | – | – | – | – | – | – | – | – | abolished
